# Test results published in patent US20110086759A1, “CHEMICAL COMPOUNDS” (SYNGENTA CROP PROTECTION, INC., priority 2007, published 2011).
# What was measured:
# Format in all cases: in vivo
# [1] = system: Amaranthus retoflexus (AMARE); assay: Post-emergence biological efficacy, glasshouse pot test; conditions: Amaranthus retroflexus, 312 h
# Outline: (§1)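 Pot-grown weeds were sprayed 8 days after sowing with test compound in acetone/water (50:50) with 0.5% Tween 20 at 1000 or 250 g/ha. Glasshouse at 24/16° C day/night, 14 h light, 65% humidity. Damage scored 0-100 (100 = total damage) after 13 days.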
# [2] = system: Echinochloa crus-galli (ECHCG); assay: as above; conditions: 312 h
# Outline: as §1
# [3] = system: Setaria faberi (SETFA); assay: as above; conditions: 312 h
# Outline: as §1
# [4] = system: Ipomea hederaceae (IPOHE); assay: as above; conditions: Ipomoea hederacea, 312 h
# Outline: as §1
# [5] = system: Solanum nigrum (SOLNI); assay: as above; conditions: 312 h
# Outline: as §1
# [6] = system: Alopecurus myosuroides (ALOMY); assay: as above; conditions: 312 h
# Outline: as §1
# [7] = system: Amaranthus retoflexus (AMARE); assay: Pre-emergence biological efficacy, glasshouse pot test; conditions: Amaranthus retroflexus, 312 h
# Outline: (§2)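 Glasshouse pot test: spray on soil one day after sowing, 1000 or 250 g/ha. Conditions 24/16 °C day/night, 14 h light, 65% humidity. Plant damage scored 0–100 at 13 days.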
# [8] = system: Echinochloa crus-galli (ECHCG); assay: as above; conditions: 312 h
# Outline: as §2
# [9] = system: Setaria faberi (SETFA); assay: as above; conditions: 312 h
# Outline: as §2
# [10] = system: Ipomea hederaceae (IPOHE); assay: as above; conditions: Ipomoea hederacea, 312 h
# Outline: as §2
# [11] = system: Solanum nigrum (SOLNI); assay: as above; conditions: 312 h
# Outline: as §2
# [12] = system: Alopecurus myosuroides (ALOMY); assay: as above; conditions: 312 h
# Outline: as §2
# [13] = Rate 1,000 g/ha, post-emergence spray, evaluated after 13 days (100=total damage to plant; 0=no damage to plant), read-out: Percentage damage caused to weed species, post-emergence, AMARE
# [14] = Rate 1,000 g/ha, post-emergence spray, evaluated after 13 days (100=total damage to plant; 0=no damage to plant), read-out: Percentage damage caused to weed species, post-emergence, ECHCG
# [15] = Rate 1,000 g/ha, post-emergence spray, evaluated after 13 days (100=total damage to plant; 0=no damage to plant), read-out: Percentage damage caused to weed species, post-emergence, SETFA
# [16] = Rate 1,000 g/ha, post-emergence spray, evaluated after 13 days (100=total damage to plant; 0=no damage to plant), read-out: Percentage damage caused to weed species, post-emergence, IPOHE
# [17] = Rate 1,000 g/ha, post-emergence spray, evaluated after 13 days (100=total damage to plant; 0=no damage to plant), read-out: Percentage damage caused to weed species, post-emergence, SOLNI
# [18] = Rate 1,000 g/ha, post-emergence spray, evaluated after 13 days (100=total damage to plant; 0=no damage to plant), read-out: Percentage damage caused to weed species, post-emergence, ALOMY
# [19] = pre-emergence, rate 1,000 g/ha, evaluated after 13 days (100=total damage to plant; 0=no damage), read-out: Percentage damage caused to weed species, AMARE
# [20] = pre-emergence, rate 1,000 g/ha, evaluated after 13 days (100=total damage to plant; 0=no damage), read-out: Percentage damage caused to weed species, ECHCG
# [21] = pre-emergence, rate 1,000 g/ha, evaluated after 13 days (100=total damage to plant; 0=no damage), read-out: Percentage damage caused to weed species, SETFA
# [22] = pre-emergence, rate 1,000 g/ha, evaluated after 13 days (100=total damage to plant; 0=no damage), read-out: Percentage damage caused to weed species, IPOHE
# [23] = pre-emergence, rate 1,000 g/ha, evaluated after 13 days (100=total damage to plant; 0=no damage), read-out: Percentage damage caused to weed species, SOLNI
# [24] = pre-emergence, rate 1,000 g/ha, evaluated after 13 days (100=total damage to plant; 0=no damage), read-out: Percentage damage caused to weed species, ALOMY
# [25] = post-emergence, 1,000 g/ha, evaluated after 13 days (100=total damage; 0=no damage), read-out: Percentage damage caused to weed species, AMARE
# [26] = post-emergence, 1,000 g/ha, evaluated after 13 days (100=total damage; 0=no damage), read-out: Percentage damage caused to weed species, ECHCG
# [27] = post-emergence, 1,000 g/ha, evaluated after 13 days (100=total damage; 0=no damage), read-out: Percentage damage caused to weed species, SETFA
# [28] = post-emergence, 1,000 g/ha, evaluated after 13 days (100=total damage; 0=no damage), read-out: Percentage damage caused to weed species, IPOHE
# [29] = post-emergence, 1,000 g/ha, evaluated after 13 days (100=total damage; 0=no damage), read-out: Percentage damage caused to weed species, SOLNI
# [30] = post-emergence, 1,000 g/ha, evaluated after 13 days (100=total damage; 0=no damage), read-out: Percentage damage caused to weed species, ALOMY
# [31] = pre-emergence, 1,000 g/ha, evaluated after 13 days (100=total damage; 0=no damage), read-out: Percentage damage AMARE
# [32] = pre-emergence, 1,000 g/ha, evaluated after 13 days (100=total damage; 0=no damage), read-out: Percentage damage ECHCG
# [33] = pre-emergence, 1,000 g/ha, evaluated after 13 days (100=total damage; 0=no damage), read-out: Percentage damage SETFA
# [34] = pre-emergence, 1,000 g/ha, evaluated after 13 days (100=total damage; 0=no damage), read-out: Percentage damage IPOHE
# [35] = pre-emergence, 1,000 g/ha, evaluated after 13 days (100=total damage; 0=no damage), read-out: Percentage damage SOLNI
# [36] = pre-emergence, 1,000 g/ha, evaluated after 13 days (100=total damage; 0=no damage), read-out: Percentage damage ALOMY
Structure (SMILES),"pest or weed control at 1000 g/ha [1, 13]","pest or weed control at 1000 g/ha [2, 14]","pest or weed control at 1000 g/ha [3, 15]","pest or weed control at 1000 g/ha [4, 16]","pest or weed control at 1000 g/ha [5, 17]","pest or weed control at 1000 g/ha [6, 18]","pest or weed control at 1000 g/ha [7, 19]","pest or weed control at 1000 g/ha [8, 20]","pest or weed control at 1000 g/ha [9, 21]","pest or weed control at 1000 g/ha [10, 22]","pest or weed control at 1000 g/ha [11, 23]","pest or weed control at 1000 g/ha [12, 24]","pest or weed control at 1000 g/ha [1, 25]","pest or weed control at 1000 g/ha [2, 26]","pest or weed control at 1000 g/ha [3, 27]","pest or weed control at 1000 g/ha [4, 28]","pest or weed control at 1000 g/ha [5, 29]","pest or weed control at 1000 g/ha [6, 30]","pest or weed control at 1000 g/ha [7, 31]","pest or weed control at 1000 g/ha [8, 32]",also measured
"COC(=O)c1nc(C2CC2)nc(N(C)[C@@H](Cc2ccccc2)C(=O)OC)c1Cl [5-283 (S), 5-Chloro-2-cyclopropyl-6-methoxycarbonyl-4-{N-[(1S)-1-methoxycarbonyl-2-phenyl-ethyl]-N-methyl-amino}-pyrimidine]",100%,10%,40%,50%,70%,10%,80%,0%,0%,30%,40%,0%,–,–,–,–,–,–,–,–,–
"COC(=O)c1nc(-c2ccc(OC)cc2F)nc(NCc2ccco2)c1Cl [Compound 258-48, 5-Chloro-2-(2-fluoro-4-methoxyphenyl)-4-(furan-2-ylmethyl-amino)-6-methoxy-carbonylpyrimidine]",90%,0%,40%,30%,50%,10%,70%,0%,20%,30%,0%,30%,–,–,–,–,–,–,–,–,–
"O=C(O)c1nc(-c2ccc(Cl)cc2)nc(NCc2ccco2)c1Cl [Compound 37-125, 5-Chloro-2-(4-chlorophenyl)-4-(furan-2-ylmethylamino)-pyrimidine-6-carboxylic acid]",100%,90%,100%,100%,100%,70%,100%,90%,90%,40%,100%,50%,–,–,–,–,–,–,–,–,–
"CCCN(Cc1ccccc1F)c1nc(C2CC2)nc(C(=O)OC)c1Cl [Compound 145-64, 5-Chloro-2-cyclopropyl-4-[N-(2-fluorophenylmethyl)-N-prop-1-yl-amino]-6-methoxy-carbonylpyrimidine]",90%,30%,40%,70%,80%,0%,70%,0%,0%,70%,70%,0%,–,–,–,–,–,–,–,–,–
"COC(=O)c1nc(C2CC2)nc(NC(C)C2CC2)c1Cl (stereo not drawn) [Compound 4-171, 5-Chloro-2-cyclopropyl-4-(1-cyclopropylethyl-amino)-6-methoxy-carbonylpyrimidine]",–,–,–,–,–,–,–,–,–,–,–,–,100%,60%,90%,90%,90%,40%,90%,70%,"pest or weed control at 1000 g/ha [9, 33]: 40%; pest or weed control at 1000 g/ha [10, 34]: 100%; pest or weed control at 1000 g/ha [11, 35]: 40%; pest or weed control at 1000 g/ha [12, 36]: 30%"
"COC(=O)c1nc(C2CC2)nc(NC2(c3ccccn3)CC2)c1Cl [Compound 4-10, 5-Chloro-2-cyclopropyl-6-methoxycarbonyl-4-(1-pyrid-2-ylcyclo-propylamino)-pyrimidine]",–,–,–,–,–,–,–,–,–,–,–,–,60%,0%,0%,50%,40%,20%,30%,0%,"pest or weed control at 1000 g/ha [9, 33]: 0%; pest or weed control at 1000 g/ha [10, 34]: 80%; pest or weed control at 1000 g/ha [11, 35]: 20%; pest or weed control at 1000 g/ha [12, 36]: 0%"
"COC(=O)c1nc(-c2ccc(Cl)c(OC)c2F)nc(NCc2ccco2)c1Cl [Compound 112-125, 5-Chloro-2-(4-chloro-2-fluoro-3-methoxyphenyl)-4-(furan-2-yl-methyl-amino)-6-methoxy-carbonylpyrimidine]",100%,90%,100%,90%,100%,80%,100%,100%,90%,100%,90%,70%,–,–,–,–,–,–,–,–,–
"COC(=O)c1nc(C2CC2)nc(NCc2ccc(F)cc2)c1Cl [Compound 4-66, 5-Chloro-2-cyclopropyl-4-(4-fluorophenyl-methylamino)-6-methoxy-carbonylpyrimidine]",–,–,–,–,–,–,–,–,–,–,–,–,100%,70%,90%,100%,100%,20%,90%,50%,"pest or weed control at 1000 g/ha [9, 33]: 80%; pest or weed control at 1000 g/ha [10, 34]: 90%; pest or weed control at 1000 g/ha [11, 35]: 90%; pest or weed control at 1000 g/ha [12, 36]: 40%"
"COC(=O)c1nc(C2CC2)nc(N(C)Cc2ccc([N+](=O)[O-])cc2)c1Cl [Compound 5-92, 5-Chloro-2-cyclopropyl-6-methoxycarbonyl-4-[N-methyl-N-(4-nitrophenylmethyl)-amino]-pyrimidine]",100%,40%,60%,100%,80%,50%,90%,10%,10%,70%,60%,20%,–,–,–,–,–,–,–,–,–
